Experimental data taken from patent US20150231209A1, “STIMULATION OF OVARIAN FOLLICLE DEVELOPMENT AND OOCYTE MATURATION” (THE BOARD OF TRUSTEES OF THE LELAND STANFORD JUNIOR …, priority 2012, published 2015).

What was measured:
ovarian grafts = assay: Ovarian grafting under kidney capsule of FSH-treated hosts: graft weights and follicle counting; assay type: in vivo, mice; settings: ovaries treated 30 min. with different concentrations, grafted 5 days, hosts treated daily with FSH
Protocol: FIG. 3. Additive effects of Hippo signaling disruption and Akt stimulation promoted secondary follicle growth. A) Secondary follicles are responsive to IVA treatment. Secondary follicles (115 um in diameter) were isolated from mice at day 10 of age and cultured in vitro with the standard IVA protocol (first day with bPV(hopic) at 3 mM and 740YP at 15 ug/ml, followed by one more day with 740YP alone), followed by treatment with daily FSH (100 ng/ml) for two more days (IVA+FSH). The control groups were either treatment with media alone for four days or treated with the IVA reagent for two days followed by media alone (IVA alone). B) Ovarian fragmentation and IVA treatment led to additive effects on ovarian weight gain and secondary follicle growth. Paired ovaries from mice at day 10 of age were fragmented into three pieces. Fragments from one side were treated with the IVA protocol (bpV(hopic) at 30 uM and 740YP at 150 ng/ml for one day, followed by one more day with 740YP only) whereas fragments from the contralateral side were incubated in media alone. Ovarian fragments were then allo-transplanted into kidney capsules of adult ovariectomized mice with hosts injected with FSH (daily at 1 IU/animal). Five 5 days later, ovarian grafts were retrieved, fixed and weighted. Left panel: graft weights; right panel: Follicle dynamics of grafted ovarian fragments. Percentages of follicles at different stages were determined based on serial sections of grafts. C, Follicle dynamics before and after grafting of intact and fragmented murine ovaries with or without treatment with Akt stimulators. Left: total follicle numbers, Right: follicle dynamics. n=4. Same letter symbols indicate significant differences (p<0.05). D-F. Vitrified human cortical strips were thawed and fragmented into cubes before treatment with Akt stimulators for 2 days followed by grafting into immune-deficient mice for 4 weeks. D. Cortical strips before grafting. Arrow: a secondary follicle, arrowheads: primordial/primary follicles. Scale bar, 100 μm. E. A kidney graft in situ (left) and after isolation (right), showing an antral follicle. F. Histology of two large antral follicles with the side view of one showing an oocyte at the germinal vesicle stage (arrow). Scale bar, 1 mm. Mean±SEM; * p<0.05.
FIG. 7. Pre-treatment with verteporfin and CCN2 antibodies suppressed fragmentation-induced ovarian growth. A, Pretreatment with verteporfin suppressed fragmentation-induced increases in CCN2, but not AMH, transcript levels. Juvenile mice were injected i.p. with verteporfin for 3 h before retrieving ovaries for fragmentation. At 4 h after incubation, transcript levels for CCN2 and AMH were determined by real-time RT-PCR. n=6-12. […] Ovaries from juvenile mice pre-injected with verteporf in for 3 h were fragmented and incubated for 1 h before grafting into FSH-treated hosts for 5 days followed by determination of graft weights. Numbers in parentheses are number of samples used. C, Follicle dynamics of intact and fragmented ovarian grafts from animals with or without verteporf in (VP) pretreatment. n=3-5. D, Incubation of fragmented ovaries with CCN2 antibodies suppressed ovarian weight increases. Paired ovaries were fragmented into 3 pieces followed by incubation with CCN2 antibodies or non-immune-IgG for 18 h before grafting for 5 days. Mean±SEM; *p<0.05.
Left upper panel: Paired ovaries from day 10 mice were treated with or without JASP (10 μM) for 30 min. before analyses of F- and G-actin content. Left lower panel: Real-time RT-PCR analyses of CCN2 transcript levels after 30 min. exposure to JASP. Right panel: Immunoblotting analyses of CCN2 protein levels after 30 min. treatment with JASP. Upper panel: Immunoblotting analyses. Lower panel: quantitative analyses of densitometric scanning data. Numbers in parentheses are number of samples used. * p<0.05. […]

F-actin/G-actin = assay: F-actin and G-actin content of ovaries after JASP; assay type: cell-based; settings: 10 μM for 30 min., ovaries from day 10 mice
Protocol: (§1) Left upper panel: Paired ovaries from day 10 mice were treated with or without JASP (10 μM) for 30 min. before analyses of F- and G-actin content. Left lower panel: Real-time RT-PCR analyses of CCN2 transcript levels after 30 min. exposure to JASP. Right panel: Immunoblotting analyses of CCN2 protein levels after 30 min. treatment with JASP. Upper panel: Immunoblotting analyses. Lower panel: quantitative analyses of densitometric scanning data. Numbers in parentheses are number of samples used. * p<0.05. […] Ovaries from day 10 mice were treated with or without different concentrations of JASP for 30 min. before grafting into adult hosts treated daily with FSH. Five days later, graft weights were determined.
Paired ovaries from CD-1 mice at different ages were excised in L-15 medium. One ovary from each animal was cut into 2-4 pieces, whereas the contralateral one remained intact. Ovaries were transferred to culture plate inserts (Millipore, Bedford, Mass.) and cultured in MEMa medium with 3 mg/ml BSA, 0.23 mM sodium pyruvate, 50 ug/ml vitamin C, 30 mIU/ml FSH, 50 mg/L streptomycin sulfate, and 75 mg/L penicillin G. After 30 min. of incubation, media were replaced and incubated for another 30 min. […]
Ratios of F-actin to G-actin in intact and fragmented ovaries were determined by F-actin/G-actin in vivo assay kit (Cytoskeleton, Denver, Colo.). […]

CCN2 = CCN2 transcript and protein levels of ovaries after JASP; assay type: cell-based; settings: 30 min. exposure, ovaries from day 10 mice
Protocol: as §1
Paired ovaries from CD-1 mice at different ages were excised in L-15 medium. One ovary from each animal was cut into 2-4 pieces, whereas the contralateral one remained intact. […]
Proteins from NIH3T3 cells or ovaries of mice at day 10 of age were extracted using M-PER Mammalian Protein Extraction Reagent (Thermo, Rockford, Ill.) containing a protease inhibitor cocktail (Thermo). […] Signals were developed using enhanced chemiluminescence (ECL Kit, GE Healthcare) and quantitated using a densitometer. […]

PTP = settings: read-out: IC50, PTP inhibitor; cited from earlier work

Row | Compound | weights of ovarian grafts (ovarian grafts) | actin polymerization (F- and G-actin content) (F-actin/G-actin) | CCN2 expression (transcript and protein) (CCN2) | IC50 (PTP)
1 | C/C1=C\[C@H](C)C[C@H](C)OC(=O)C[C@H](c2ccc(O)cc2)NC(=O)[C@@H](Cc2c(Br)[nH]c3ccccc23)N(C)C(=O)[C@H](C)NC(=O)[C@@H](C)C1 [JASP, jasplakinolide] | increased weights of ovarian grafts | increased actin polymerization | increased | –
2 | monoperoxo(picolinato)oxovanadate(V) | – | – | – | 18 µM
